Measured values taken from US20160281089A1, “PREVENTION OF VIRAL INFECTIVITY” (priority 2005, published 2016).

Assays:
[1] = molecular target: T1, RNase H activity of HIV RT/RNaseH (Human immunodeficiency virus type 1 group M subtype B, UniProt P04585); assay: Permeabilized HIV virions with ODN A and Illimaquinone, viral RNA degradation by real-time PCR; settings: 150 μM Illimaquinone, 50 nM ODN A, 0.1% NP-40 permeabilized virions, 30 min 37° C., without added RT/RNaseH
[2] = molecular target: T1, RNase H activity of HIV RT/RNaseH; design: the HIV RT/RNase H is a heterodimer of p66 and p51 with and without RNase H; endogenous in cells; host or cells: permeabilized HIV virions (virion-associated enzyme); panel B has added recombinant RT/RNaseH at 0.05 units/µl; settings: previously described; cited from earlier work
HIV virions [3] = assay: ODN-mediated cleavage of viral RNA in intact HIV virions (real-time PCR, RT-PCR, agarose gel); type: biochemical; settings: 0.5 μM ODN, intact HIV virions, RPMI medium, 6 hours
HIV virions [4] = assay: Infectivity of ODN-pre-incubated HIV virions in C81-66/45 cells; type: cell-based; settings: for binding/uptake of pre-treated virions by host cells: pre-incubation 4 hours, HIV RNA in infected cells 1 hour post-infection
Experimental: As a next step we investigated the antiviral effect of ODNs by testing the infectivity of treated virions in cell culture studies. We used ODN A, ODN T, as PPT and ODN CO. 2×10^5 C81-66/45 cells were infected with virions pre-incubated with different ODNs at 0.01 MOI for 1, 2 or 4 hours prior to infection. RNA was extracted from infected cells and HIV replication was analysed by real-time PCR 3 days post-infection.
To test the specificity of suppression of viral replication, the effect of ODN A on the infectivity of virions was compared with control ODNs. Virions were pre-treated with the ODNs and HIV replication in infected cells was analysed by real-time PCR, 5 days (FIG. 6A) or 20 days post-infection (FIG. 6B) and by measuring p24 production in the supernatant of the infected cells (FIG. 6C).
(A) HIV virions were incubated with 0.5 μM of ODNs for 1, 2 or 4 hours. C81-66/45 cells were infected with pre-incubated virions, at 0.01 MOI. RNA was extracted from infected cells and HIV replication was analysed by real-time PCR, 3 days post-infection (p.i.).
(B) The same experiment as in (A) was performed with ODN T, ODN CO, asPPT and ODN A pre-treated virions.
(D) C81-66145 cells were infected with virions pre-incubated with 0.5 or 5 μM of ODNs for 4 h, at an MOI of 1. RNA was extracted from infected cells and HIV replication was analysed by real-time PCR, 3 days post-infection.
(E) C81-66/45 cells were infected with virions pre-incubated with ODN A and ODN Sc for 4 h, at an MOI of 0.01. RNA was extracted from infected cells and HIV replication was analysed by real-time PCR, 1 h and 24 h post-infection. (F) The same experiment as in (E) was performed except for using ODN T, ODN B and ODN A, 1 hour post-infection.
C81-66/45 cells were infected with virions pre-incubated with ODN A, ODN T, ODN CO or as PPT for 4 h, at MOI of 0.01. RNA was extracted from infected cells and HIV replication was analysed by real-time PCR, 5 days p.i. (A), and 20 days p.i. (B); by measuring p24 production in the medium of the infected cells (C) or by RT-PCR, 11 days p.i. (D).

SFFV = assay: NIH 3T3 cells infected with ODN-pretreated SFFV; type: cell-based; settings: three days post-infection, real-time RT-PCR
Excerpt: As next step we investigated the antiviral effect of ODNs by testing pre-treated virions for residual infectivity as has been described before for HIV particles. SFFV particles were pretreated with ODN M or its variants and used to infect NIH 3T3 cells. After three days RNA was extracted from infected cells and from the supernatants and SFFV was quantified by real-time RT-PCR and analysis of amplification products (FIG. 9b).
b. NIH 3T3 cells were infected with SFFV pretreated with various ODNs. After three days the cells and supernatants were harvested and analyzed for SFFV RNA levels by quantitative real time RT-PCR (top) and RT-PCR (bottom) using GAPDH for comparison.

C=C1CCC[C@H]2[C@](C)(CC3=C(O)C(=O)C=C(OC)C3=O)[C@@H](C)CC[C@]12C [Illimaquinone]
ODN A-mediated viral RNA cleavage in presence of Illimaquinone [1]: failed to induce cleavage | inhibition of RNase H activity of HIV RT/RNaseH [2]: specifically inhibit the RNase H activity

AAAAGAAAAGGGGGGACTGGTTGGGTTTTCCCTTCCAGTCCCCCCTTTTCTTTT (chemistry not given here) [ODN T, passenger strand fully complementary to the antisense strand]
amount of undigested viral RNA (real-time PCR, primers covering PPT region) (HIV virions [3]): less efficient cleavage of the viral RNA | binding/uptake of pre-treated virions by host cells (HIV virions [4]): uptake similar to ODN A | HIV replication in infected cells (real-time PCR) (HIV virions [4]; virions pre-incubated 4 hours with 0.5 μM ODN, 0.01 MOI, 3 days post-infection): low but detectable levels

TCTTTTTGCGCGCTTTGTTTGTTTTTTCTTTCATTCCCCCCTTTTTCT (chemistry not given here) [ODN CG, ODN M variant with a triple nucleotide change in the second strand (SFFV tests)]
amount of undigested viral RNA (real-time PCR, primers covering PPT region) (HIV virions [3]): antiviral activity similar to ODN A | SFFV RNA in infected cells and supernatant (SFFV): clearly less efficient

TCTTTTTGGGGGGAATGTTTGTTTTTTCTTTCATTCCCCCCTTTTTCT (DNA, backbone and methylation of C not given here) [ODN S, ODN M variant, two nucleotide changes in the second strand]
SFFV RNA in infected cells and supernatant (SFFV): clearly less efficient

TTTCTTTTGGGGGGTTTGGTTGGGTTTTCCCTTCCAGTCCCCCCTTTTCTTT (chemistry not given here) [ODN B, one nucleotide removed from both 5′ and 3′ ends of ODN A]
amount of undigested viral RNA (real-time PCR, primers covering PPT region) (HIV virions [3]): less efficient cleavage of the viral RNA | binding/uptake of pre-treated virions by host cells (HIV virions [4]): uptake similar to ODN A

TTTGGGGGGTTCTTCCTCCTTTCCTTTTTCGCCCGTCCGTTGCGTTGATTTTTT (chemistry not given here) [ODN Sc, reference compound]
amount of undigested viral RNA (real-time PCR, primers covering PPT region) (HIV virions [3]): less efficient cleavage of the viral RNA

TTTTCTTTTGCGCGCTTTGGTTGGGTTTTCCCTTCCAGTCCCCCCTTTTCTTTT (chemistry not given here) [ODN NT, triple substitution in the passenger strand at site complementary to CCCCCC]
amount of undigested viral RNA (real-time PCR, primers covering PPT region) (HIV virions [3]): less efficient cleavage of the viral RNA

TTTTCTTTTGGGGGGACTGGTTGGGTTTTCCCTTCCAGTCCCCCCTTTTCTTTT (chemistry not given here) [ODN H, triple substitution in the passenger strand]
amount of undigested viral RNA (real-time PCR, primers covering PPT region) (HIV virions [3]): less efficient cleavage of the viral RNA
